{
  "source": "patent US7364905B2",
  "about": "“Apparatus and method for high throughput analysis of compound-membrane interactions” (TechElan, LLC, priority 2001, dated 2008)",
  "origin": "cited, not measured here",
  "system": "Caco-2 cells",
  "settings": "Caco-2 cell mono-layer versus gut",
  "data": [
    {"smiles": "OC[C@@H](O)[C@@H](O)[C@H](O)[C@H](O)CO", "note": "[mannitol]", "values": [
      {"measurement": "rate of permeation through the cell mono-layer relative to through the gut", "result": "fifty to three hundred and sixty times lower"}
    ]}
  ]
}
